Publication PMC6273369, “Synthesis, Biological Evaluation and Molecular Modelling of 2′-Hydroxychalcones as Acetylcholinesterase Inhibitors” (Molecules, 2016)
Read-outs that look alike come from different tables or passages of the source.

What was measured:
human AChE [1] = biological target: T1, human AChE (Homo sapiens, UniProt P22303); experiment: biochemical; conditions: for inhibition at 10 µM: read-out: % Inhibition at 10 µM; for IC50: mean ± SEM
T1 construct: purchased Sigma-Aldrich
Description: AChE and BChE inhibition studies were performed in 96 well plates by the method of Ellman, et al.. […] The mixture was preincubated for 20 min at 37 °C before addition of 50 μL (0.120 mM) of the substrate, acetylthiocholine (ATC) iodide or butyrylthiocholine (BTC) iodide (depending on the enzyme). […] Each assay was performed in triplicate. […] The percentage of inhibition was calculated using the expression: (E–S)/E × 100 where E is the activity of the enzyme without test compound and S is the activity of the enzyme with test compound.
(§1) IC50 values were obtained from concentration-inhibition experiments by nonlinear regression analysis using PRISM® v5.0 (GraphPad Inc., San Diego, CA, USA).

human AChE [2] = biological target: T1, human AChE; experiment: Kinetic characterisation of AChE inhibition (Lineweaver-Burk, nonlinear regression mixed-model); format: biochemical; conditions: substrate acetylthiocholine 0.1-1.0 mM, read-out: Apparent Ki, human AChE
Description: […]. The mode of inhibition was investigated using Lineweaver–Burk plots of 1/initial reaction rate (1/V) against 1/substrate concentration (1/[S]). Apparent inhibition constant (Ki and Ki′) values were determined using the nonlinear regression mixed-model inhibition method in PRISM® v5.0 (GraphPad Inc.).

equine BChE = biological target: T2, equine BChE (Equus caballus, UniProt P81908); experiment: Equine BChE inhibition, Ellman's method; format: biochemical; conditions: for Selectivity for AChE: IC50 (BChE)/IC50 (AChE); for IC50: equine BChE, mean ± SEM
T2 construct: purchased Sigma-Aldrich
Description: The IC50 values of the four compounds that gave the greatest inhibition of AChE were also determined for equine BChE, which is readily available and is considered a good model for human BChE [23], as the equine form has 90% sequence identity compared to the human form. […].
AChE and BChE inhibition studies were performed in 96 well plates by the method of Ellman, et al.. 110 μL of sodium phosphate buffer (pH 8.0) was added to each well followed by 20 μL of test compound, 50 μL of 5,5′-dithiobis-(2-nitrobenzoic acid) (DTNB) (0.126 mM) and 20 μL of AChE or BChE (0.15 units/mL). The mixture was preincubated for 20 min at 37 °C before addition of 50 μL (0.120 mM) of the substrate, acetylthiocholine (ATC) iodide or butyrylthiocholine (BTC) iodide (depending on the enzyme). The hydrolysis of ATC or BTC was monitored using an Infinite® M200 PRO multimode reader (Tecan Group Ltd., Männedorf, Switzerland) by measuring the absorbance due to yellow 5-thio-2-nitrobenzoate anion at 412 nm every 30 s for 25 min. Each assay was performed in triplicate. […] The percentage of inhibition was calculated using the expression: (E–S)/E × 100 where E is the activity of the enzyme without test compound and S is the activity of the enzyme with test compound.
as §1

[3] = human recombinant AChE, 10 µM, mean of triplicate, na = no activity observed at 10 µM

T1 sequence (P22303 32-614): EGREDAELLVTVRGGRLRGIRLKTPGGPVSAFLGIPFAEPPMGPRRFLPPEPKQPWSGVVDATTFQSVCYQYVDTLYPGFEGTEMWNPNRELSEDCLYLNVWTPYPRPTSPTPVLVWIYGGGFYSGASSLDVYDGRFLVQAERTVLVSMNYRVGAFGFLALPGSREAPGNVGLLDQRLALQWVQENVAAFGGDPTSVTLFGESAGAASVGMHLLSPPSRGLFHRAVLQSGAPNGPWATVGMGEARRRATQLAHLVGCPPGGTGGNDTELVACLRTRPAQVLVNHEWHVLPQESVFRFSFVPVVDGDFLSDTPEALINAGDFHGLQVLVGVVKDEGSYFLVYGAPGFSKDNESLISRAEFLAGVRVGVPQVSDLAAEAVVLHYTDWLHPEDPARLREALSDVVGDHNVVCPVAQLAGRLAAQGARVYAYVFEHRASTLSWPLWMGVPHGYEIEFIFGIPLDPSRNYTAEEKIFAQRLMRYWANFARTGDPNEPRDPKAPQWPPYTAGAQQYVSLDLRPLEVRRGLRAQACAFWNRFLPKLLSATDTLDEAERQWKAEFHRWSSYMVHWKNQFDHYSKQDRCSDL
T2 sequence (P81908 whole entry): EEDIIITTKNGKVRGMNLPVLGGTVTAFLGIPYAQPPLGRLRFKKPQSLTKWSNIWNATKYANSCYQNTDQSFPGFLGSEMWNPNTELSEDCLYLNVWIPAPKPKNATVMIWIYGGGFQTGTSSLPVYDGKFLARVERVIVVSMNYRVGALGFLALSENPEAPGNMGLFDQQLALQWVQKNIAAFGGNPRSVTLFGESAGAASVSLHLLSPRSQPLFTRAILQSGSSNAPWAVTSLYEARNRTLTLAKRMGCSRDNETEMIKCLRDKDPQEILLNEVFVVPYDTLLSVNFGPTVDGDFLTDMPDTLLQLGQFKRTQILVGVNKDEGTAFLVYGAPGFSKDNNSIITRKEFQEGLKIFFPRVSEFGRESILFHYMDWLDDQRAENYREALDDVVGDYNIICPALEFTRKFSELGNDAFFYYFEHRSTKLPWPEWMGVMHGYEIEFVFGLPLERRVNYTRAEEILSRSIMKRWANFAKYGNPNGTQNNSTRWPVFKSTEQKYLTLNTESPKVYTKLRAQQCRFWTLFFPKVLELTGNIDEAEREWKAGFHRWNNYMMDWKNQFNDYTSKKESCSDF

Structure (SMILES) | inhibition at 10 µM (human AChE [1]; [3]) [%] | inhibition at 10 µM (human AChE [1]) [%] | IC50 (human AChE [1]; human recombinant AChE) [µM] | Ki (human AChE [2]) [µM] | Selectivity for AChE (equine BChE) | IC50 (equine BChE) [µM]
COc1cc(O)c(C(=O)/C=C/c2ccc(N(C)C)cc2)c(OC)c1 [Compound 11, 2′-Hydroxy-4′,6′-dimethoxy-4-(dimethylamino)chalcone] | 5 | – | – | – | – | –
COc1ccc(/C=C/C(=O)c2ccccc2O)cc1 [Compound 6, 2′-Hydroxy-4-methoxychalcone] | – | 6 | – | – | – | –
COc1cc(O)c(C(=O)/C=C/c2ccc(Br)cc2)c(OC)c1 [Compound 10, 4-Bromo-2′-hydroxy-4′,6′-dimethoxychalcone] | 30 | – | 41 ± 13 | 31 | 1.4 | 59 ± 12
CN(C)c1ccc(/C=C/C(=O)c2ccccc2O)cc1 [Compound 5, 2′-Hydroxy-4-(dimethylamino)chalcone] | 28 | – | 266 ± 48 | – | – | –
O=C(/C=C/c1ccccc1)c1ccccc1O [Compound 1, 2′-Hydroxychalcone] | – | 11 | – | – | – | –
COc1cc(O)c(C(=O)/C=C/c2ccc(C)cc2)c(OC)c1 [Compound 9, 2′-Hydroxy-4′,6′-dimethoxy-4-methylchalcone] | 23 | – | 354 ± 33 | – | – | –
O=C(/C=C/c1ccccc1Br)c1ccccc1O [Compound 7, 2-Bromo-2′-hydroxychalcone] | 38 | – | 55 ± 12 | 40 | 2.0 | 108 ± 18
COc1cc(O)c(C(=O)/C=C/c2cc(Cl)cc(Cl)c2O)c(OC)c1 [Compound 14, 3,5-Dichloro-2,2′-dihydroxy-4′,6′-dimethoxychalcone] | 51 | – | 73 ± 22 | 56 | 1.1 | 81 ± 18
COc1cc(O)c(C(=O)/C=C/c2ccccc2Br)c(OC)c1 [Compound 13, 2-Bromo-2′-hydroxy-4′,6′-dimethoxychalcone] | 23 | – | 85 ± 16 | 113 | – | 71 ± 14
COc1ccc(/C=C/C(=O)c2c(O)cc(OC)cc2OC)cc1 [Compound 12, 2′-Hydroxy-4,4′,6′-trimethoxychalcone] | 7 | – | – | – | – | –
